Where “and” joins values, the source holds several entries; their conditions need not be identical. Equal values may be shown once.
Legend:
[1] = Stability study of alitretinoin in vacuum-sealed pack in the absence of oxygen absorber and silica gel desiccant (HPLC impurities); format: physicochemical; settings: Initial; no oxygen absorber, no silica gel desiccant
Description: (§1) Stability studies of alitretinoin were conducted by loading alitretinoin samples at various stability conditions, for example, at 25±2° C./60±5% relative humidity (RH) and 40±2° C./75±5% RH in the absence or presence of an oxygen absorber and a silica desiccant for 1 month, 2 months, 3 months, or 6 months. The stability studies were performed on a stability incubator (for accelerated stability studies, Hotpack was used and for real time stability studies, NuAire® was used). The degradation products were identified using an Agilent® 1100 series HPLC system.
Alitretinoin was packed in a LDPE bag. The bag was twisted and tied with a plastic fastener under nitrogen. The LDPE bag was placed into a middle bag of polyester/LDPE and vacuum was applied to the middle bag and then it was heat sealed. The sealed middle bag was packed into a polyester/aluminum/polyester/LDPE bag. Vacuum was applied to this bag and then it was heat sealed. The vacuum-sealed pack was loaded on stability at stations 40±2° C. and 75±5% RH (accelerated) and 25±2° C. and 60±5% RH.

[2] = Stability study of alitretinoin at 25±2° C./60±5% RH in vacuum-sealed pack in the presence of oxygen absorber (Stabilox) and silica gel desiccant; format: physicochemical; parameters: 4-Hydroxy alitretinoin impurity / 5,6-Epoxy alitretinoin impurity / Total related substances / 4-Oxo-alitretinoin impurity: unit not given here; settings: for 4-Hydroxy alitretinoin impurity / 4-Oxo-alitretinoin impurity / 5,6-Epoxy alitretinoin impurity / Total related substances: with oxygen absorber and silica gel desiccant
Description: as §1
Alitretinoin was packed in a LDPE bag. The bag was twisted and tied with a plastic fastener under nitrogen. The LDPE bag was placed into a middle bag of polyester/LDPE along with an oxygen absorber. A vacuum was applied to the middle bag and then it was heat sealed. The sealed middle bag was packed into a polyester/aluminum/polyester/LDPE bag along with silica gel as a desiccant. Vacuum was applied to this bag and it was then heat sealed. The vacuum-sealed pack was loaded on stability at 25±2° C. and 60±5% RH.

[3] = Stability study of alitretinoin at 40±2° C./75±5% RH in vacuum-sealed pack in the presence of oxygen absorber (Stabilox) and silica gel desiccant; format: physicochemical; parameters: 4-Hydroxy alitretinoin impurity / 5,6-Epoxy alitretinoin impurity / Total related substances / 4-Oxo-alitretinoin impurity: unit not given here; settings: for 4-Oxo-alitretinoin impurity / 5,6-Epoxy alitretinoin impurity / Total related substances / 4-Hydroxy alitretinoin impurity: with oxygen absorber and silica gel desiccant
Description: as §1
Alitretinoin was packed in a LDPE bag; the bag was twisted and tied with a plastic fastener under nitrogen. It was placed into a middle bag of polyester/LDPE along with an oxygen absorber. Vacuum was applied to the middle bag and then it was heat sealed. This sealed middle bag was packed into a polyester/aluminum/polyester/LDPE bag along with silica gel as a desiccant. Vacuum was applied to this bag and then it was heat sealed. The vacuum-sealed pack was loaded on stability at 40±2° C. and 75±5% RH.

[4] = in the presence of oxygen; cited from earlier work

## CC1=C(/C=C/C(C)=C\C=C\C(C)=C\C(=O)O)C(C)(C)CCC1 [Alitretinoin, (2E,4E,6Z,8E)-3,7-dimethyl-9-(2,6,6-trimethyl-1-cyclohexenyl)-2,4,6,8-nonatraenoic acid]
[1]
  Total related substances: 0.403 and 0.411 and 0.351
[2]; 3M/25 ± 2° C./60 ± 5% RH
  4-Hydroxy alitretinoin impurity: 0.003
  4-Oxo-alitretinoin impurity: 0.003 and 0.002
  5,6-Epoxy alitretinoin impurity: 0.008 and 0.005
  Total related substances: 0.198 and 0.195 and 0.179
[2]; 6M/25 ± 2° C./60 ± 5% RH
  4-Hydroxy alitretinoin impurity: 0.002 and 0.003
  4-Oxo-alitretinoin impurity: 0.004 and 0.003
  5,6-Epoxy alitretinoin impurity: 0.006 and 0.008 and 0.005
  Total related substances: 0.183 and 0.193 and 0.167
[2]; 25±2° C./60±5% RH (Table 2), in the presence of an oxygen absorber and a silica gel desiccant
  Change in oxidative impurities on storage: no increase in oxidative impurities
[2]; Initial
  4-Hydroxy alitretinoin impurity: 0.002
  4-Oxo-alitretinoin impurity: 0.002 and 0.003
  5,6-Epoxy alitretinoin impurity: 0.006 and 0.009
  Total related substances: 0.165 and 0.189 and 0.173
[3]; 1M/40 ± 2° C./75 ± 5% RH
  4-Oxo-alitretinoin impurity: 0.004 and 0.003
  5,6-Epoxy alitretinoin impurity: 0.008 and 0.006
  Total related substances: 0.173 and 0.182 and 0.160
[3]; 2M/40 ± 2° C./75 ± 5% RH
  4-Hydroxy alitretinoin impurity: 0.003 and 0.002 and 0.004
  4-Oxo-alitretinoin impurity: 0.003 and 0.002
  5,6-Epoxy alitretinoin impurity: 0.010 and 0.008 and 0.007
  Total related substances: 0.191 and 0.192 and 0.180
[3]; 3M/40 ± 2° C./75 ± 5% RH
  4-Hydroxy alitretinoin impurity: 0.003 and 0.002
  4-Oxo-alitretinoin impurity: 0.003 and 0.004
  5,6-Epoxy alitretinoin impurity: 0.008 and 0.010 and 0.006
  Total related substances: 0.192 and 0.205 and 0.177
[3]; 6M/40 ± 2° C./75 ± 5% RH
  4-Hydroxy alitretinoin impurity: 0.002
  4-Oxo-alitretinoin impurity: 0.003 and 0.004
  5,6-Epoxy alitretinoin impurity: 0.006 and 0.007
  Total related substances: 0.175 and 0.188 and 0.167
[3]; 40±2° C./75±5% RH (Table 3), in the presence of an oxygen absorber and a silica gel desiccant
  Change in oxidative impurities on storage: no increase in oxidative impurities
[3]; Initial
  4-Hydroxy alitretinoin impurity: 0.002
  4-Oxo-alitretinoin impurity: 0.002 and 0.003
  5,6-Epoxy alitretinoin impurity: 0.006 and 0.009
  Total related substances: 0.165 and 0.189 and 0.173
[4]
  Decomposition: decomposition was extensive

From patent US20140262858A1, “PACKAGING FOR ALITRETINOIN” (RANBAXY LABORATORIES LIMITED, priority 2011, published 2014)
